According to patent US11187660B2, “Fluorescent probes for monitoring voltage by photo-induced electron transfer” (The Regents of the University of California, priority 2011, dated 2021):
Where “and” joins values, the source holds several entries; their conditions need not be identical. Equal entries are not always repeated.

Tests used:
[1] = system: HEK293 cells; assay: Voltage sensitivity of fluorescence in voltage-clamped HEK cells (whole-cell recording); format: cell-based, human; details: for voltage sensitivity ΔF/F per 100 mV: HEK293 cells voltage-clamped at −60 mV holding potential
Excerpt: Membrane voltage of cells loaded with VF1.4.Cl or VF2.4.Cl were controlled by making tight-seal whole-cell recordings. Cells were maintained at a holding potential of −60 mV and stepped for 50 ms to various depolarizing and hyperpolarizing potentials (FIG. 5A), while simultaneously acquiring epifluorescence images. For both sensors, depolarizing steps result in fluorescence increases while hyperpolarizing steps decrease fluorescence intensity, in keeping with our proposed mechanism. […] For di-4-ANEPPS, typical values are 0.08-0.12% per mV. The larger changes for VF1.4.Cl and VF2.4.Cl compared to di-4-ANEPPS are somewhat expected, since a PeT-based voltage sensor samples the entire emission spectrum, whereas electrochromic dyes are limited to the edge of the spectrum only. For both probes, the voltage responses are linear across the physiologically relevant ranges of −100 mV to +100 mV. To assess the speed of the optical response to voltage, VF2.4.Cl signals were monitored in response to voltage steps of 100 mV from a holding potential of −60 mV.
We characterized the voltage sensitivity of all three indicators by making tight-seal whole-cell recordings of HEK293 cells stained with the VF sensors. Cells were voltage-clamped at −60 mV holding potential and sequentially stepped to depolarizing and hyperpolarizing potentials at 20-mV increments (FIG. 9B). For all three dyes, depolarizing steps produced fluorescence increases, whereas hyperpolarizing steps produced fluorescence decreases, in keeping with the proposed PeT mechanism. The fluorescence response is linear over the range of −100 mV to +100 mV (FIG. 9C), with voltage sensitivities ΔF/F per 100 mV of 20±1% for VF1.4.Cl and 25±1% for VF2.4.Cl. This statistically significant increase in voltage sensitivity (P<0.05, two-tailed Student t test) is expected upon increasing the length of the molecular wire, and is 2.5- to 4-times more sensitive than di-4-ANEPPS, which, in our hands, gives sensitivities of between 6% and 10% ΔF/F per 100 mV. […] To investigate the speed of response of VF probes, we again made whole-cell recordings of cells stained with VF2.4.Cl, applied 100-mV depolarizing steps from a holding potential of −60 mV, and recorded both the electrophysiological signals and the optical signals.
Electrophysiological recordings of HEK293 cells and cultured neurons were performed with an Axopatch 200A or 200B amplifier (Molecular Devices) at room temperature. The signals were digitized with Digidata 1332A and recorded with pCLAMP 9 software (Molecular Devices) on a PC. Analysis of electrophysiological data was done with AxoGraph X (AxoGraphX), pCLAMP 9, and/or ClampFit (Molecular Devices). For most experiments the extracellular solution consisted of (in mM) 145 NaCl, 20 glucose, 10 HEPES, 3 KCl, 2 CaCl2, 1 MgCl2 (pH 7.35, 310 mOsm). The intracellular solution contained (in mM) 115 potassium gluconate, 10 BAPTA tetrapotassium salt, 10 HEPES, 5 NaCl, 10 KCl, 2 ATP disodium salt, 0.3 GTP trisodium salt (pH 7.25, 290 mOsm).
For studies to determine excitation sensitivity of dyes, illumination was provided by a Polychrom IV light source (T.I.L.L. Photonics GMBH) with a mechanical shutter (Uniblitz VS25). For all other studies, light was provided by an Xenon arc lamp powered by an Optiquip Power supply (Optiquip) with a mechanical shutter controlled by a Lambda 10-2 controller (Sutter). […]

[2] = Absorbance and emission spectra in aqueous buffer with Triton X-100; format: physicochemical; details: 5 mM sodium phosphate, pH 9, 0.1% Triton X-100
Protocol: FIG. 8A, FIG. 8B, and FIG. 8C show the normalized absorbance and emission spectra for exemplary compounds of the invention in 5 mM sodium phosphate, pH 9 with 0.1% Triton X-100. Black lines are absorbance spectra; grey lines are emission spectra. a) VF1.4.Cl, b) VF2.4.Cl, and c) VF2.1.Cl.
All dyes feature emission and excitation profiles typical of dichlorofluoresceins (VF1.4.Cl: λmax=521 nm, ε=93,000 M^−1·cm^−1, λem=534 nm, Φ=0.24; VF2.4.Cl: λmax=522 nm, ε=97,000 M^−1·cm^−1, λem=536 nm, Φ=0.054; VF2.1.Cl: λmax=522 nm, ε=98 000 M^−1·cm^−1, λcm=535 nm, Φ=0.057, 5 mM sodium phosphate, pH 9, 0.1% Triton X-100) (FIG. 8).
UV absorbance and fluorescence spectra were recorded on a Cary 3E (Varian) and Fluorolog 2 (Spex) fluorimeter, respectively. Analytical, semi-preparative, and preparative HPLCs were performed on Agilent HPLCs, with Luna C18(2) columns (Phenomenex) using water (solvent A) and acetonitrile (solvent B) with 0.05% TFA as an additive. Low resolution ESI mass spectrometry was performed on an Agilent LC/MSD Trap XCT coupled to an Agilent HPLC. High resolution mass spectra were acquired on a ThermoFisher Orbitrap XL hybrid mass spectrometer. ^1H NMR spectra were collected in CDCl3 or d6-DMSO (Cambridge Isotope Laboratories, Cambridge, Mass.) at 25° C. on a 400 Varian Mercury Plus or Jeol ECA 500 spectrometer at the Department of Chemistry and Biochemistry NMR Facility at the University of California, San Diego. All chemical shifts are reported in the standard δ notation of parts per million using the peak of residual proton signals of CDCl3 or d6-DMSO as an internal reference.

| Structure (SMILES) | voltage sensitivity ΔF/F per 100 mV [1] [%] | Φ [2] | ε [2] | λem [2] [nm] | λmax [2] [nm] | sensitivity, fractional fluorescence change (ΔF/F) versus change in membrane potential ([1]; HEK cells, holding potential −60 mV) |
| --- | --- | --- | --- | --- | --- | --- |
| CN(C)c1ccc(/C=C/c2ccc(/C=C/c3ccc(-c4c5cc(Cl)c(=O)cc-5oc5cc(O)c(Cl)cc45)c(S(=O)(=O)O)c3)cc2)cc1 [VF2.1.Cl, 5-(4-(4-(dimethyllamino)styryl)styryl)-2-(2,7-dichloro-6-hydroxy-3-oxo-3H-xanthen-9-yl)benzenesulfonic acid] | 27±1 | 0.057 | 98 000 M^−1·cm^−1 | 535 | 522 |  |
| CCCCN(CCCC)c1ccc(/C=C/c2ccc(/C=C/c3ccc(-c4c5cc(Cl)c(=O)cc-5oc5cc(O)c(Cl)cc45)c(S(=O)(=O)O)c3)cc2)cc1 [VF2.4.Cl, 5-(4-(4-(dibutylamino)styryl)styryl)-2-(2,7-dichloro-6-hydroxy-3-oxo-3H-xanthen-9-yl)benzenesulfonic acid] | 25±1 | 0.054 | 97,000 M^−1·cm^−1 | 536 | 522 | 0.25±0.01 % per mV and 0.25 % per mV |
